# Results from PMC12396409, “Screening and hit evaluation of a microbial metabolite library against the pathogenic Plasmodium falciparum and Toxoplasma gondii parasites” (International Journal for Parasitology: Drugs and Drug …, 2025).
# Read-outs that look alike come from different tables or passages of the source. *1 amine or outer side, *2 acyl side, *3 side chain or, on linkers, in order; H or OH if unused. Where a SMILES comes first, the peptide text is derived from it. Bridges are numbered along the chain shown (N, C = ends). [ ]: non-standard residue; d: D form. The star is where a group is joined. hTyr(3S-OH,4S-OH,3'-OSO3H) = N[C@H](C(=O)O)[C@H](O)[C@@H](O)c1ccc(O)c(OS(=O)(=O)O)c1; Orn(4R-OH,5R-OH) = O=C([C@H](C[C@@H](O)[C@@H](O)N[*:3])N[*:1])[*:2]; Pro(3S-OH,4S-Me) = C[C@H]1CN[C@H](C(=O)O)[C@H]1O; Gln(3R-OH) = NC(=O)C[C@@H](O)[C@H](N)C(=O)O; Palmitoyl = CCCCCCCCCCCCCCCC(=O)*; Hyp = O=C(O)[C@@H]1C[C@@H](O)CN1
# Columns and labels:
# [1] = system: P. falciparum 3D7 parasites; assay: P. falciparum growth inhibition assay, 1-cycle (72 h treatment), SYBR DNA staining (library screen at 2 μg/mL and dose-response); assay type: cell-based, Plasmodium falciparum; details: for activity at 2 µg/mL: Plasmodium falciparum, parasite screen 2 μg/mL
# [2] = system: T. gondii RH strain (RH-Tub-eYFP) tachyzoites; assay: microbe, parasite or virus in culture; assay type: cell-based, Toxoplasma gondii; details: 72 h; for percent parasite growth at 2 µg/mL: Toxoplasma gondii, parasite screen 2 μg/mL
# [3] = system: P. falciparum 3D7 parasites; assay: P. falciparum growth inhibition assay, 2-cycle (120 h treatment), delayed-death screen and dose-response; assay type: cell-based, Plasmodium falciparum; details: for activity at 2 µg/mL: Plasmodium falciparum, parasite screen 2 μg/mL
# [4] = library screen at 2 μg/mL, 72 h, % growth, replicate 1
# [5] = library screen at 2 μg/mL, 72 h, % growth, replicate 2
# [6] = library screen at 2 μg/mL, % growth, replicate 1
# [7] = library screen at 2 μg/mL, % growth, replicate 2
# [8] = library screen at 2 μg/mL, 120 h, % growth, replicate 1
# [9] = library screen at 2 μg/mL, 120 h, % growth, replicate 2
# [10] = T. gondii, % growth, replicate 1, read-out: Tg_72h_%Growth_Rep1
# [11] = T. gondii, % growth, replicate 2, read-out: Tg_72h_%Growth_Rep2
# [12] = P. falciparum, 72 h, screen at 2 μg/mL, replicate 1
# [13] = P. falciparum, 72 h, screen at 2 μg/mL, replicate 2
# [14] = T. gondii, screen at 2 μg/mL, replicate 1
# [15] = T. gondii, screen at 2 μg/mL, replicate 2
# [16] = P. falciparum, 120 h, screen at 2 μg/mL, replicate 1
# [17] = P. falciparum, 120 h, screen at 2 μg/mL, replicate 2
smiles,measurement,setting,value
C=C1CC[C@H]2C(C)(C)CCC[C@]2(C)[C@H]1C[C@@]12C[C@H]3C(=O)N[C@@H](CC(C)C)C(=O)N3[C@@H]1Nc1ccccc12 [Drimentine A],Pf_72h_%Growth_Rep1,[1]; [4],31.67%
same,Pf_72h_%Growth_Rep2,[1]; [5],47.87%
same,Tg_72h_%Growth_Rep1,[2]; [6],101.23%
same,Tg_72h_%Growth_Rep2,[2]; [7],80.15%
same,Pf_120h_%Growth_Rep1,[3]; [8],26.95%
same,Pf_120h_%Growth_Rep2,[3]; [9],40.06%
"CCCCCCCCCCCCCCCC(=O)N[C@H]1C[C@@H](O)[C@@H](O)NC(=O)[C@@H]2[C@@H](O)[C@@H](C)CN2C(=O)[C@H]([C@H](O)CC(N)=O)NC(=O)[C@H]([C@H](O)[C@@H](O)c2ccc(O)c(OS(=O)(=O)O)c2)NC(=O)[C@@H]2C[C@@H](O)CN2C(=O)[C@H]([C@@H](C)O)NC1=O [FR 901379] (Palmitoyl-[Orn(4R-OH,5R-OH)]T[Hyp][hTyr(3S-OH,4S-OH,3'-OSO3H)][Gln(3R-OH)][Pro(3S-OH,4S-Me)]; lactam 1-C)",Pf_72h_%Growth_Rep1,[1]; [4],84.19%
same,Pf_72h_%Growth_Rep2,[1]; [5],83.86%
same,Tg_72h_%Growth_Rep1,[2]; [6],119.40%
same,Tg_72h_%Growth_Rep2,[2]; [7],105.49%
same,Pf_120h_%Growth_Rep1,[3]; [8],96.37%
same,Pf_120h_%Growth_Rep2,[3]; [9],99.58%
Cc1cc(O)c2c(c1)C(=O)c1c(c(O)cc(O)c1-c1c(O)cc(O)c3c1C(=O)c1cc(C)cc(O)c1C3=O)C2=O [Skyrin],activity at 2 µg/mL,"[1]; 3D7, P. falciparum, 72 h, % growth, replicate 1, read-out: Pf_72h_%Growth_Rep1",80.4%
same,activity at 2 µg/mL,"[1]; 3D7, P. falciparum, 72 h, % growth, replicate 2, read-out: Pf_72h_%Growth_Rep2",120%
same,percent parasite growth at 2 µg/mL,[2]; [10],114%
same,percent parasite growth at 2 µg/mL,[2]; [11],84.9%
same,activity at 2 µg/mL,"[3]; 3D7, P. falciparum, 120 h, % growth, replicate 1, read-out: Pf_120h_%Growth_Rep1",75.2%
same,activity at 2 µg/mL,"[3]; 3D7, P. falciparum, 120 h, % growth, replicate 2, read-out: Pf_120h_%Growth_Rep2",137%
CN1C(=O)[C@]23CC4=CC=C[C@H](O)[C@H]4N2C(=O)[C@@]1(CO)SS3 [BIA-G1260],Pf_72h_%Growth_Rep1,"[1]; P. falciparum 3D7, 72 h, library screen at 2 μg/mL, % growth, replicate 1",14.96%
same,Pf_72h_%Growth_Rep2,"[1]; P. falciparum 3D7, 72 h, library screen at 2 μg/mL, % growth, replicate 2",8.82%
same,Tg_72h_%Growth_Rep1,"[2]; T. gondii RH, library screen at 2 μg/mL, % growth, replicate 1",1.56%
same,Tg_72h_%Growth_Rep2,"[2]; T. gondii RH, library screen at 2 μg/mL, % growth, replicate 2",0.82%
same,Pf_120h_%Growth_Rep1,"[3]; P. falciparum 3D7, 120 h, library screen at 2 μg/mL, % growth, replicate 1",35.56%
same,Pf_120h_%Growth_Rep2,"[3]; P. falciparum 3D7, 120 h, library screen at 2 μg/mL, % growth, replicate 2",25.95%
CN(C)c1ncnc2c1ncn2[C@@H]1O[C@H](CO)[C@@H](N)[C@H]1O [Puromycin aminonucleoside],activity at 2 µg/mL,"[1]; 3D7, 72 h, P. falciparum, 72 h, % growth, replicate 1, read-out: Pf_72h_%Growth_Rep1",78%
same,activity at 2 µg/mL,"[1]; 3D7, 72 h, P. falciparum, 72 h, % growth, replicate 2, read-out: Pf_72h_%Growth_Rep2",105%
same,percent parasite growth at 2 µg/mL,[2]; [10],-2.04%
same,percent parasite growth at 2 µg/mL,[2]; [11],0.2%
same,activity at 2 µg/mL,"[3]; 3D7, 120 h, P. falciparum, 120 h, % growth, replicate 1, read-out: Pf_120h_%Growth_Rep1",69.5%
same,activity at 2 µg/mL,"[3]; 3D7, 120 h, P. falciparum, 120 h, % growth, replicate 2, read-out: Pf_120h_%Growth_Rep2",57.6%
CC(=O)OCC12CC(O)C(C)=CC1OC1C(O)C(OC(C)=O)C2(C)C12CO2 (stereo not shown) [BIA-N1931],Pf_72h_%Growth_Rep1,"[1]; P. falciparum 3D7, 72 h, parasite screen at 2 μg/mL, % growth, replicate 1",6.76%
same,Pf_72h_%Growth_Rep2,"[1]; P. falciparum 3D7, 72 h, parasite screen at 2 μg/mL, % growth, replicate 2",-0.85%
same,Tg_72h_%Growth_Rep1,"[2]; T. gondii, parasite screen at 2 μg/mL, % growth, replicate 1",0.58%
same,Tg_72h_%Growth_Rep2,"[2]; T. gondii, parasite screen at 2 μg/mL, % growth, replicate 2",-0.09%
same,Pf_120h_%Growth_Rep1,"[3]; P. falciparum 3D7, 120 h, parasite screen at 2 μg/mL, % growth, replicate 1",9.98%
same,Pf_120h_%Growth_Rep2,"[3]; P. falciparum 3D7, 120 h, parasite screen at 2 μg/mL, % growth, replicate 2",3.84%
COC(=O)[C@]1(Cc2ccc(O)cc2)OC(=O)C(O)=C1c1ccc(O)cc1 [Butyrolactone II],Pf_72h_%Growth_Rep1,[1]; [12],83.73%
same,Pf_72h_%Growth_Rep2,[1]; [13],86.44%
same,Tg_72h_%Growth_Rep1,[2]; [14],129.35%
same,Tg_72h_%Growth_Rep2,[2]; [15],92.93%
same,Pf_120h_%Growth_Rep1,[3]; [16],89.95%
same,Pf_120h_%Growth_Rep2,[3]; [17],95.11%
COc1cc([C@H]2[C@@]3(O)C[C@H]4C[C@]2(O)[C@](O)(C(=O)O4)[C@H]3C(=O)c2ccccc2)oc(=O)c1 [Deoxyenterocin],Pf_72h_%Growth_Rep1,[1]; [12],87.29%
same,Pf_72h_%Growth_Rep2,[1]; [13],90.62%
same,Tg_72h_%Growth_Rep1,[2]; [14],127.64%
same,Tg_72h_%Growth_Rep2,[2]; [15],104.18%
same,Pf_120h_%Growth_Rep1,[3]; [16],64.95%
same,Pf_120h_%Growth_Rep2,[3]; [17],102.75%
CC1=C[C@H](C)C[C@H](C)[C@H](Cc2cnco2)OC(=O)/C(C)=C\[C@H](C)C[C@H](C)[C@H](Cc2cnco2)OC1=O [Conglobatin],Mean,"[1]; P. falciparum, 72 h, 2 μg/mL, mean of both replicates, growth (% of control)",52.30
same,Pf_72h_%Growth_Rep1,[1]; [12],86.29%
same,Pf_72h_%Growth_Rep2,[1]; [13],18.30%
same,Tg_72h_%Growth_Rep1,[2]; [14],127.73%
same,Tg_72h_%Growth_Rep2,[2]; [15],88.01%
same,Pf_120h_%Growth_Rep1,[3]; [16],82.43%
same,Pf_120h_%Growth_Rep2,[3]; [17],72.72%
C[C@H]1C(=O)N2c3ccccc3[C@@]3(O)C[C@@H](n4cnc5ccccc5c4=O)C(=O)N1[C@@H]23 [Chaetominine],Pf_72h_%Growth_Rep1,[1]; [12],81.47%
same,Pf_72h_%Growth_Rep2,[1]; [13],84.79%
same,Tg_72h_%Growth_Rep1,[2]; [14],140.61%
same,Tg_72h_%Growth_Rep2,[2]; [15],97.41%
same,Pf_120h_%Growth_Rep1,[3]; [16],101.17%
same,Pf_120h_%Growth_Rep2,[3]; [17],95.94%
CC[C@@H](C)/C=C(C)/C=C/C(=O)c1c(O)c(-c2ccc(O)cc2)cn(O)c1=O [Tenellin],Pf_72h_%Growth_Rep1,[1]; [12],58.91%
same,Pf_72h_%Growth_Rep2,[1]; [13],96.26%
same,Tg_72h_%Growth_Rep1,[2]; [14],-2.05%
same,Tg_72h_%Growth_Rep2,[2]; [15],1.18%
same,Pf_120h_%Growth_Rep1,[3]; [16],76.98%
same,Pf_120h_%Growth_Rep2,[3]; [17],107.08%
